We go through 13 molecules from patent US4636518A, “Imidazole derivatives and pharmaceutical compositions” (G. D. Searle & Co., priority 1981, dated 1987).

Read-outs that look alike come from different tables or passages of the source.

Experiment [1] relates to thromboxane production in human platelet rich plasma (TxB2). Kind of experiment: Thromboxane production in human platelet rich plasma (TxB2 radioimmunoassay, collagen stimulated). It counts as cell-based. As to conditions: read-out: ACTIVITY (IC50 × 10^6 M). The text has this:
The antithrombotic activity of the compounds of the invention has been determined by their ability to inhibit production of thromboxane A2 (TxA2) by blood platelets the synthesis of which is an important factor in the aggregation of platelets and the initiation of thrombosis (R. J. Gryglewski, CRC Crit. Rev. Biochem., (1980), 7(4), 291).
The compounds of the invention have been tested by the following in vitro radioimmunoassays for their ability to inhibit thromboxane and affect prostacyclin production.
Thromboxane production in Human Platelet Rich Plasma
(§1) (a) Platelet rich plasma (prp) preparation
(§2) Human venous blood was […] from healthy male donors, who had denied any medication during the previous 14 days. Nine volumes of blood were mixed with one volume of 3.24% trisodium citrate. The citrated blood was centrifuged at 160 g for 10 mins. at 22° C. to obtain platelet rich plasma (prp). The platelets were then counted on a Coulter counter, and the platelet count was adjusted to 200,000 per μl with plasma.
(b) Thromboxane generation
The prp was then dispensed as aliquots into micro-Eppendorf tubes, maintained at 37° C. in a dry bath. The compounds, dissolved either in saline, ethanol, or dimethylsulphoxide, were added in duplicate to the prp aliquots to produce final concentrations in the range of 0.1-30 μg/ml. When ethanol and DMSO were used as the vehicle, triplicate controls containing the same percentage of vehicle as the test compounds were made. The final concentration of organic solvent was never more than 0.1%, which in previous experiments had no effect on TxB2 generation.
Following a 10 min. incubation with test compounds or vehicle, collagen was added to produce a final concentration of 20 μg/ml. The tubes were then whirly-mixed for 15 seconds and replaced in the dry bath for a further 10 minutes, controls received saline instead of collagen. The reaction was then stopped by rapid centrifugation (15000 g for 3 mins). The plasma was removed and frozen at -29° C. until assayed.
(c) Assay of Thromboxane B2
Briefly, 100 μl aliquots of the following, in 50 mM phosphate buffer+0.1% gelatin+thimerosal (pH 6.8) were incubated together for 16 hours at 4° C.: thromboxane TxB2 (plasma extract or standards 50 to 10,000 pg/ml), [^3 H]--TxB2 (approximately 15,000 dpm) and anti-TxB2 antiserum (0.5 μg/100 μl). The free and protein bound [^3 H]--TxB2 were separated by adsorption onto activated charcoal followed by centrifugation. […] of the supernatant was added to an aqueous scintillation fluid, and the radioactivity present was counted in a liquid scintillation counter. The binding of [^3 H]--TxB2 in the absence of added TxB2 was approximately 55%. The least amount of TxB2 to be detected accurately in the plasma was 50 pg/ml. Cross reactivity with other prostaglandins is less than 0.005% except PGD2 which is 1%.
Thus plasma samples were assayed to give a rough approximation of TxB2 content. The plasma was then appropriately diluted and assayed in duplicate to give accurate values.
The amount of TxB2 generated by the collagen was calculated by subtracting mean values obtained for the saline stimulated platelets from the mean values obtained from the collagen stimulated platelets. Then the amount of TxB2 generated in the presence of each concentration of compound was expressed as a % control and dose response curves were then constructed to determine the concentration of compound which produced a 50% inhibition.

The subject of experiment [2] is arachidonic acid induced aggregation of human prp. In words: Inhibition of platelet aggregation in vitro, arachidonic acid induced (turbidometric). Particulars: for IC50: Platelet, human prp, arachidonic acid, read-out: I.C.50 (μM) vs ARACHIDONIC ACID; for inhibition of arachidonic acid induced aggregation of human prp: result in words. It counts as cell-based. The method, then:
as §1, §2
(§3) Inhibition of Platelet Aggregation in vitro
In addition to the above tests, platelet aggregation in citrated prop (prepared as above) against a variety of aggregating agents was measured turbidometrically in a Payton Dual Channel Aggregometer (method as described in G.V.R. Born, Nature, (1962), 194, 927).

In experiment [3] the test system is platelet aggregation in the male retired breeder rat. Kind of experiment: Antiplatelet activity in the male retired breeder rat model (platelet aggregate ratio). It counts as in vivo. As to conditions: read-out: EX50 (3h post oral administration). Here is the method:
The retired breeder male rat may be utilized any time from 24 hours to 6 months after receipt without prior fasting or manipulation. […] The test (as described in R. N. Saunders, T. S. Burns, M. R. Selzer and E. R. Waskawic, Lab. Animal Sci., (1977), 27, 757-761) consists of the oral administration of the investigative compound either dissolved in or suspended in propylene glycol 400 at 20 mg/kg to four retired breeder male rats (40 mg of compound required). Three hours from the time of administration, the rats are ether anaesthetized, the abdominal cavity exposed and one ml of blood is withdrawn into each of two syringes from the vena cava. The first syringe contains four ml of buffered citrate/formalin solution and the second syringe contains four ml of buffered citrate alone. The syringes are inverted, held at room temperature for 15 minutes and the contents are centrifuged at 170 g for 14 minutes. Platelet counts are obtained on the undiluted solutions by means of a hemacytometer under 430×phase-contrast microscopy. The platelet aggregate ratio is obtained by dividing the platelet count of the first syringe by that of the second syringe. A ratio of 1.0 would indicate that no platelet aggregates are present whereas ratios below 1.0 indicate the presence and degree of platelet aggregate formation which has occurred.

Experiment [4] deals with collagen induced aggregation of human prp. In words: Inhibition of platelet aggregation in vitro, collagen induced (turbidometric). As to conditions: for IC50: Platelet, human prp, collagen, read-out: I.C.50 (μM) vs COLLAGEN; for inhibition of collagen induced aggregation of human prp: result in words. The experiment is classed as cell-based. The method, then: as §1
Human venous blood was […] from healthy male donors, who had denied any medication during the previous 14 days. […] The citrated blood was centrifuged at 160 g for 10 mins. at 22° C. to obtain platelet rich plasma (prp). The platelets were then counted on a Coulter counter, and the platelet count was adjusted to 200,000 per μl with plasma.
as §3

The subject of experiment [5] is aggregation of human platelet rich-plasma. Kind of experiment: Aggregation of human platelet rich plasma (aggregating agent not stated). Particulars: in vitro, result in words. It counts as cell-based.
Experiment [6] relates to PGI2 synthesis in cultured bovine arterial endothelial cells. Kind of experiment: Prostacyclin production in cultured aortic endothelial cells (6-keto PGF1α radioimmunoassay). The experiment is classed as cell-based. Particulars: for Net PGI2 synthesis: control 120. The source says:
Prostacyclin Production in Cultured Aortic Endothelial Cells
Bovine aortic arch tissue was obtained from a local abattoir, and transported to the laboratory on ice. Arterial endothelial cells were obtained from the washed (phosphate buffered saline) aortic arch tissue by gentle scraping of the intima, within two hours of sacrifice. Cell suspensions were washed by centrifugation, resuspended, and propagated in Roswell Park Memorial Institute (RPMI) 1640 medium (Moore, G. E., J.A.M.A., (1967), 199, 519) 1640 medium+20% foetal calf serum (FCS)+antibiotics (1-2 doublings). The cells were then trypsinised, cloned by limiting dilution, selected colonies grown to confluence (3-4 passages), and stored in liquid nitrogen. When required, batches of cells were removed from store, resuscitated, and propagated in RPMI medium+10% FCS+antibiotics (passaged 6-15 times). At trypsinisation, representative cells from each passage were transferred to multiwell plates (1×10^5 cells/well) and incubated for 3 days (final count 3.5×10^5 cells/well).
The medium in each well of the plate was exchanged for serum and antibiotic free RPMI 1640, and a time 0 sample (100 μl) taken. Drugs or vehicle were next added as required, and a further sample (800 μl) taken from each well after a 60 minute incubation at 37° C. with gentle shaking. Prostacyclin synthesis and release into the medium over this period was estimated using an RIA technique for 6-keto PGF1α, the stable metabolite of PGI2 (New England Nuclear 6-keto PGF1α RIA kit, Catalogue No. NEK 008).
(b) Assay of 6-keto PGF1α
Briefly, 100 μl aliquots in 50 mM phosphate buffer+0.1% gelatin+0.01% thimerosal (pH 6.8) of the following were incubated together for 16 hours at 4° C.: 6-keto PGF1α (incubation medium extract or standards 10-1000 pg/0.1 ml), [^3 H]-6-keto PGF1α (approximately 15000 dpm) anti-6-keto PGF1α antiserum. The […] and protein bound [^3 H]-6-keto PGF1α were separated by adsorption onto activated charcoal followed by centrifugation. 850 μl of the supernatant was added to an aqueous scintillation fluid, and the radioactivity present counted in a liquid scintillation counter. The binding of [^3 H]-6-keto PGF1α in the absence of added 6-keto PGF1α was approximately 40%. The least amount of 6-keto PGF1α to be detected accurately in the samples was 100 pg/ml. Cross reactivity with other prostaglandins was less than 0.3% except PGE2 (2%) and PGF2α (2.7%).

The mark [7] stands for this setting: male breeder rat, oral, 3h post administration.

As to `COc1ccc(COCC(Cn2ccnc2)OCc2ccc3c(c2)OCO3)cc1` (centres unmarked) [Example 20], the IC50 in experiment [1] turned out to be 4 µM. Further, in experiment [2], the IC50 is 24 µM and the “inhibition of arachidonic acid induced aggregation of human prp” value is “clearly more active than aspirin, dipyridamole, or sulphinpyrazone”. For the same molecule, the ED50 in experiment [3] (setting [7]) was 1.8 mg/kg. In experiment [4], the IC50 was 89 µM and the “inhibition of collagen induced aggregation of human prp” value is “clearly more active than aspirin, dipyridamole, or sulphinpyrazone”.

Turning to `COc1ccc(COCC(Cn2ccnc2)OCc2ccc(Cl)cc2)cc1` (centres unmarked) [Example 4], the IC50 in experiment [1] was found to be 23 µM.

Turning to `c1cncc(COC(COCc2ccc3c(c2)OCO3)Cn2ccnc2)c1` (centres unmarked) [Example 34], the IC50 in experiment [1] was determined as 13 µM.

Turning to `COc1ccc(COCC(Cn2ccnc2)OCc2ccc(C#N)cc2)cc1` (centres unmarked) [Example 24], the IC50 in experiment [1] is 12 µM.

On to `COc1ccc(COCC(Cn2ccnc2)OCc2ccsc2)cc1` (centres unmarked) [Example 30], for which, in experiment [1], the IC50 was determined as 20 µM.

On to `COc1ccc(COCC(Cn2ccnc2)OCc2ccccc2)cc1` (centres unmarked) [Example 2], for which the IC50 in experiment [1] amounted to 11 µM.

Take `COc1ccc(COCC(Cn2ccnc2)OCc2ccccn2)cc1` (centres unmarked) [Example 28]: in experiment [1], the IC50 was found to be 10 µM.

Turning to `O=C1C(CC[S+]([O-])c2ccccc2)C(=O)N(c2ccccc2)N1c1ccccc1` (centres unmarked) [sulphinpyrazone, reference compound], in experiment [3] (setting [7]), the ED50 turned out to be 4.1 mg/kg. The IC50 in experiment [4] was determined as 173 µM.

As for `COc1ccc(COCC(Cn2ccnc2)OCc2cccc(OC)c2)cc1` (centres unmarked) [Example 15], in experiment [1], the IC50 was determined as 14 µM.

As to `OCCN(CCO)c1nc(N2CCCCC2)c2nc(N(CCO)CCO)nc(N3CCCCC3)c2n1` [dipyridamole, reference compound], the IC50 in experiment [2] and in experiment [4] was above 200 µM each time. Also, the ED50 in experiment [3] (setting [7]) worked out at 1.8 mg/kg.

For `COc1ccc(COCC(Cn2ccnc2)OCc2ccc(OC)cc2)cc1` (centres unmarked) [Example 1, 1-[2-[(4-methoxyphenyl)methoxy]-3-[(4-methoxyphenyl)methoxy]propyl]-1H-imidazole], the results for the IC50 in experiment [1], in experiment [2] and in experiment [4] were 12 µM, 31 µM and 103 µM, respectively. Besides, the “aggregation of human platelet rich-plasma” value in experiment [5] is “the aggregation of human platelet rich-plasma”. Also, the “inhibition of arachidonic acid induced aggregation of human prp” value in experiment [2] is reported as “clearly more active than aspirin, dipyridamole, or sulphinpyrazone”. The ED50 in experiment [3] (setting [7]) came out at 0.49 mg/kg. The “Net PGI2 synthesis” value was 125 pg 6-keto PGF1 α/60 min/3.5 × 10^5 in experiment [6] (26 µM), 130 pg 6-keto PGF1 α/60 min/3.5 × 10^5 in experiment [6] (7.8 μm), 106 pg 6-keto PGF1 α/60 min/3.5 × 10^5 in experiment [6] (26.0 μm) and 135 pg 6-keto PGF1 α/60 min/3.5 × 10^5 in experiment [6] (78.0 μm). For the same molecule, the activation at 2.6 µM in experiment [6] (Bos taurus, Endothelial cell, 1 h, 2.6 μm, 60 min, read-out: % Change (PGI2 synthesis)) is 4%. The activation at 7.8 µM in experiment [6] (Bos taurus, Endothelial cell, 1 h, 7.8 μm, 60 min, read-out: % Change (PGI2 synthesis)) was 8%. Also, in experiment [6] (Bos taurus, Endothelial cell, 1 h, 26.0 μm, 60 min, read-out: % Change (PGI2 synthesis)), the activation at 26 µM was -12%. Moreover, in experiment [6] (Bos taurus, Endothelial cell, 1 h, 78.0 μm, 60 min, read-out: % Change (PGI2 synthesis)), the activation at 78 µM turned out to be 12%. In addition, in experiment [6] (at concentrations equivalent to those which inhibit TxA2 formation, result in words), the “effect on production of prostacyclin” value is listed as “not to significantly effect production of prostacyclin”. Also, in experiment [6] (at concentrations substantially in excess of those which inhibit platelet thromboxane synthetase, 1 hour, result in words), the “effect on basal PGI2 synthesis” value is “no significant effect on basal PGI2 synthesis”. The “inhibition of collagen induced aggregation of human prp” value in experiment [4] was “clearly more active than aspirin, dipyridamole, or sulphinpyrazone”.

Consider `CC(=O)Oc1ccccc1C(=O)O` [aspirin, reference compound], for which the IC50 in experiment [2] turned out to be 56 µM. In experiment [3] (Rattus norvegicus, po, 3 h), the ED50 worked out at 7.7 mg/kg.

Turning to `COc1ccc(COC(CSCc2ccc(OC)cc2)Cn2ccnc2)cc1` (centres unmarked) [Example 35], in experiment [1], the IC50 worked out at 22 µM.
